# In patent US10471076B2, “Compositions and methods to treat vision disorders” (YouHealth Biotech, Limited, priority 2014, dated 2019):
# Values joined by “and” are separate entries in the source; they are usually repeats but may differ in a detail not shown here. Equal entries are not always repeated.
# Experiments:
# [1] = system: amyloid-like fibrils of crystallin proteins; test: Re-dissolution of pre-formed amyloid-like fibrils (ThT fluorescence, TEM, turbidity); assay type: biochemical, human; conditions: 0.2 mg/ml aggregates; 500 μM sterols in 500 μM DPPC liposome (b129 prints 500 mM), 37° C., 24 h; TEM and ThT fluorescence; concentration-dependent
# Experimental: Crystallin aggregates were formed by incubating 5 mg ml^−1 protein solution at 60° C. for 2 h (α-crystallins) or 37° C. for 48 h (β- and γ-crystallins) in the presence of 1 M guanidine chloride. The preformed aggregates were re-suspended in PBS at a final protein concentration of 0.2 mg ml^−1 and were treated with 500 μM sterols in 500 μM DPPC liposome and incubated at 37° C. for 24 h. Aggregates treated with 500 μM DPPC liposome only were used as the controls. […] Aggregates treated with 500 μM DPPC liposome only were used as the controls.
# All protein samples were prepared in 20 mM PBS buffer containing 150 mM NaCl, 1 mM EDTA and 1 mM DTT.
# Protein aggregation and aggregate dissociation. The aggregates of the wild-type and mutated αA- and αB-crystallin proteins were obtained by heating the protein solutions containing 1 M guanidine chloride (ultrapure, Sigma-Aldrich) at a con-centration of 5 mg/ml at 60° C. for 2 h. The aggregates of the wild-type and mutated b- and c-crystallins were prepared by heating the protein solutions containing 1 M guanidine chloride at 37° C. for 48 h. The formation of aggregates was confirmed by ThT fluorescence, turbidity (absorbance at 400 nm) and transmission electron microscopy (TEM) observations. […] After 24 h of treatment, the protein solutions were used for ThT fluorescence, turbidity and negatively stained TEM observations. […]
# dog eyes with cataracts = test: Treatment of cataractous lenses in dogs in vivo; set-up: key to cataract grade before treatment, treatment group / cataract grade after treatment, treatment group: Grade 0: absence of opacification (no cataract); Grade 1: a slight degree of opacification (incipient stage); Grade 2: presence of diffuse opacification involving almost the entire lens (immature stage); Grade 3: presence of extensive, thick opacification involving the entire lens (mature stage)
# Experimental: Preparation of drug-loaded nanoparticles. Lanosterol was loaded into a lipid-polymer hybrid nanoparticle through an adapted nanoprecipitation method^34. In brief, the desired concentration of lanosterol was mixed with polycaprolactone (PCL) polymer dissolved in acetonitrile. Lecithin and 1,2-distearoyl-sn-glycero-3-phosphoethanolamine-N-carboxy(polyethylene glycol) 2000 (DSPE-PEG-COOH) were dissolved in a 4% ethanol aqueous solution at 20% of the PCL polymer weight and heated above 60° C. The lanosterol/PCL solution was then added into the preheated lipid solution under gentle stirring followed by rigorous vortexing for 3 min. The mixture solution was then stirred for 2 h to allow the nanoparticles to form and the acetonitrile to evaporate. Next, the nanoparticle solution was washed three times using an Amicon Ultra-4 centrifugal filter (Millipore) with a molecular weight cut-off of 10 kDa to remove the remaining organic solvent and free molecules. The resulting nanoparticles were then re-suspended in PBS buffer for sub-sequent use. The size, size distribution, and surface zeta potential of the drug-loaded nanoparticles were characterized by dynamic light scattering. The loading yield of lanosterol was quantified by high-performance liquid chromatography.
# Treatment of cataractous lenses in dogs. To assess the effect of lanosterol treatment on cataracts in live animals, dogs were pre-medicated with intramuscular injections of acepromaxine and butorphanol. After 20 min, induction of anaesthesia was performed by application of intravenous propofol. Dogs were then immediately intubated and maintained on oxygen and 2% isoflurane at […]. Lanosterol (100 mg)-loaded nanoparticles were initially injected into the vitreous cavity in the test eye using a 28-gauge needle, and then were given every 3 days for the duration of the experiment. Treatment eyes or sham eyes were randomized. […] Degree of cataract severity was assessed by a blinded examiner and scored based on canine cataract stage, shown below^35. Improvements in lens clarity and transparency were quantified. […]
compound,measurement,setting,value
"CC(C)=CCC[C@@H](C)[C@H]1CC[C@@]2(C)C3=C(CC[C@]12C)[C@@]1(C)CC[C@H](O)C(C)(C)[C@@H]1CC3 [lanosterol, 3β-Hydroxy-8,24-lanostadiene; 8,24-Lanostadien-3β-ol]",re-dissolution of aggregated crystallin proteins from amyloid-like fibrils,[1],successfully re-dissolved the aggregated crystallin proteins
same,"cataract grade before treatment, treatment group","dog eyes with cataracts; dog study eye, baseline, n=7",1 and 2 and 3
same,"cataract grade after treatment, treatment group","dog eyes with cataracts; dog study eye, intravitreal lanosterol (100 mg)-loaded nanoparticles every 3 days plus 25 mM lanosterol eye drops three times daily, 6 weeks, n=7",0 and 1
same,cataract severity / lens clarity,"dog eyes with cataracts; dogs in vivo, 6 weeks of lanosterol, P<0.009, Wilcoxon Test",significantly reduced cataract severity and increased lens clarity
